Experimental data reported in paper PMC6675791, “Clozapine-dependent inhibition of EGF/neuregulin receptor (ErbB) kinases” (Translational Psychiatry, 2019).

Tests used:
Experiment in all cases: in vitro kinase assay (ELISA, Tyr-Glu heteropolymer substrate, […] ATP, […] Triton X-100)
Assay type in all cases: biochemical
ErbB2 kinase = biological target: T1, ErbB2 kinase (Homo sapiens, UniProt P04626)
T1 construct: recombinant truncated ErbB2 kinase (intracellular domain, lacking the extracellular domain)

ErbB4 kinase = biological target: T2, ErbB4 kinase (Homo sapiens, UniProt Q15303)
T2 construct: recombinant truncated ErbB4 kinase (intracellular domain, lacking the extracellular domain)

ErbB1 kinase = biological target: T3, ErbB1 kinase (Homo sapiens, UniProt P00533)
T3 construct: gene EGFR; recombinant truncated ErbB1 kinase (intracellular domain, lacking the extracellular domain)
T3 sequence (P00533 669-1210 limits assumed): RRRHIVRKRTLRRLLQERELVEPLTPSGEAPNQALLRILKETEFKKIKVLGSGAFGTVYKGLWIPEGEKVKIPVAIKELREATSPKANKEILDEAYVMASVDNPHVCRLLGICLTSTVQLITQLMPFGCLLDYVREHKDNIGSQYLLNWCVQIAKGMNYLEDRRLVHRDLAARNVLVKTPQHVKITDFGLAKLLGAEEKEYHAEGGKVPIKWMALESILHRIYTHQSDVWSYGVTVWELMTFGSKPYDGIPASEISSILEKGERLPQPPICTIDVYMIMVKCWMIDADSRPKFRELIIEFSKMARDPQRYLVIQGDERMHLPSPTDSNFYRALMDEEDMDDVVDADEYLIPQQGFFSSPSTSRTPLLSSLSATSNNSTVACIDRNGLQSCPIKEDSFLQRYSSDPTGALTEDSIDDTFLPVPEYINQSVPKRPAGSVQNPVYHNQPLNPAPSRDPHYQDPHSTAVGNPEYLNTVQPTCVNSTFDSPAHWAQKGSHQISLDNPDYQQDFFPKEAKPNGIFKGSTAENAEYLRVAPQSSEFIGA

T1 sequence (P04626 676-1255 limits assumed): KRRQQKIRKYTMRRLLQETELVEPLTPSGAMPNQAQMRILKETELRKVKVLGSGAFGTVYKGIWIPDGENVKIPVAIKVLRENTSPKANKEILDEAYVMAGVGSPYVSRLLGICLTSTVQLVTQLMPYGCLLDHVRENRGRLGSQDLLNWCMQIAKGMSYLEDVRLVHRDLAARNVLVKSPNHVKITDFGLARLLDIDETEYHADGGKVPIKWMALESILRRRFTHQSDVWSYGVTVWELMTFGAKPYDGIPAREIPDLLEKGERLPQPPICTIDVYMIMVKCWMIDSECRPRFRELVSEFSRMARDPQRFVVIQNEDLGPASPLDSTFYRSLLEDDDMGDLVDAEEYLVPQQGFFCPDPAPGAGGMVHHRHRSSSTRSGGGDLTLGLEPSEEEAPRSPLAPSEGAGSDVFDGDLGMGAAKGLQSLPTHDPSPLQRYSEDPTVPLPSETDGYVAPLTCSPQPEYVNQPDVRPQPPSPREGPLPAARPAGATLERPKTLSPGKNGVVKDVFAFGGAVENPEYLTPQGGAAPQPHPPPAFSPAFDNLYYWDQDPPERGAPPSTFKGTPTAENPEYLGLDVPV
T2 sequence (Q15303 676-1308 limits assumed): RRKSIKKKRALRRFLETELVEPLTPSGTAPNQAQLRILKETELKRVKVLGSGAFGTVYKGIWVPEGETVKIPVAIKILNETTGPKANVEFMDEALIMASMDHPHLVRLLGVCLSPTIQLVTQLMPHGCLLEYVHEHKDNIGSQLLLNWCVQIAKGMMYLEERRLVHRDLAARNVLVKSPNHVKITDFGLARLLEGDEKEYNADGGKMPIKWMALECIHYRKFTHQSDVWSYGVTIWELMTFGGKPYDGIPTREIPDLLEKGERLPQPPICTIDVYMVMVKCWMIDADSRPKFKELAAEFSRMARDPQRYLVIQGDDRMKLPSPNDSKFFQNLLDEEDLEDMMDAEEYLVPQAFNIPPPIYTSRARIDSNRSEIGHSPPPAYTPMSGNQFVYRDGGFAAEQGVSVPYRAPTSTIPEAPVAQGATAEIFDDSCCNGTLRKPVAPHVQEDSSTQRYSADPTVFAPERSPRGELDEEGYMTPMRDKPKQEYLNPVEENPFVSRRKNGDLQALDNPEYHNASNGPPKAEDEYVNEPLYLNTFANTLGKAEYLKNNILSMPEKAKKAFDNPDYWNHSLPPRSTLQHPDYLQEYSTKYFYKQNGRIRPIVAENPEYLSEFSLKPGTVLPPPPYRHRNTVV

CN1CCN(C2=Nc3cc(Cl)ccc3Nc3ccccc32)CC1 [CLZ, clozapine] was tested, and the “in vitro kinase assay (ELISA, Tyr-Glu heteropolymer substrate, 4 mM ATP, 0.2% Tr)” value (ErbB2 kinase) was 3 µM, the “in vitro kinase assay (ELISA, Tyr-Glu heteropolymer substrate, 4 mM ATP, 0.2% Tr)” value (ErbB4 kinase) was 30 µM and the “in vitro kinase assay (ELISA, Tyr-Glu heteropolymer substrate, 4 mM ATP, 0.2% Tr)” value (ErbB1 kinase) was 30 µM.
